Measured values as given in PubChem BioAssay (NCI).
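GI50 marks 50% less growth. TGI denotes the concentration required for complete inhibition of growth.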

Legend:
Assay in all cases: NCI-60 cell line screen, 384-well format
OVCAR-4 ovarian = tested on: OVCAR-4 ovarian
786-0 renal = tested on: 786-0 renal
RXF 393 renal = tested on: RXF 393 renal
BT-549 breast = tested on: BT-549 breast
UO-31 renal = tested on: UO-31 renal
OVCAR-8 ovarian = tested on: OVCAR-8 ovarian
HOP-92 NSCLC = tested on: HOP-92 NSCLC
MDA-MB-231 breast = tested on: MDA-MB-231 breast
MDA-MB-468 breast = tested on: MDA-MB-468 breast
HCT-116 colon = tested on: HCT-116 colon
MDA-MB-435 melanoma = tested on: MDA-MB-435 melanoma
OVCAR-3 ovarian = tested on: OVCAR-3 ovarian
PC-3 prostate = tested on: PC-3 prostate
SN12C renal = tested on: SN12C renal
KM12 colon = tested on: KM12 colon
SNB-19 CNS = tested on: SNB-19 CNS
SF-539 CNS = tested on: SF-539 CNS
MCF7 breast = tested on: MCF7 breast
K-562 leukemia = tested on: K-562 leukemia
TK-10 renal = tested on: TK-10 renal
UACC-257 melanoma = tested on: UACC-257 melanoma
NCI/ADR-RES ovarian = tested on: NCI/ADR-RES ovarian
M14 melanoma = tested on: M14 melanoma
NCI-H23 lung = tested on: NCI-H23 lung
SK-OV-3 ovarian = tested on: SK-OV-3 ovarian
SW-620 colon = tested on: SW-620 colon
UACC-62 melanoma = tested on: UACC-62 melanoma
HL-60(TB) leukemia = tested on: HL-60(TB) leukemia
SK-MEL-5 melanoma = tested on: SK-MEL-5 melanoma
SF-295 CNS = tested on: SF-295 CNS
HS 578T breast = tested on: HS 578T breast
A549 NSCLC = tested on: A549 NSCLC
NCI-H226 lung = tested on: NCI-H226 lung
U251 glioblastoma = tested on: U251 glioblastoma
COLO 205 colon = tested on: COLO 205 colon
T-47D breast = tested on: T-47D breast
ACHN renal = tested on: ACHN renal
MALME-3M melanoma = tested on: MALME-3M melanoma
NCI-H460 NSCLC = tested on: NCI-H460 NSCLC
SF-268 CNS = tested on: SF-268 CNS
CAKI-1 renal = tested on: CAKI-1 renal
CCRF-CEM leukemia = tested on: CCRF-CEM leukemia
DU-145 prostate = tested on: DU-145 prostate
HCC-2998 colon = tested on: HCC-2998 colon
LOX IMVI melanoma = tested on: LOX IMVI melanoma
SK-MEL-28 melanoma = tested on: SK-MEL-28 melanoma
RPMI-8226 leukemia = tested on: RPMI-8226 leukemia
MOLT-4 leukemia = tested on: MOLT-4 leukemia
NCI-H322M lung = tested on: NCI-H322M lung
A498 renal = tested on: A498 renal
OVCAR-5 ovarian = tested on: OVCAR-5 ovarian
HT29 colon = tested on: HT29 colon
SR leukemia = tested on: SR leukemia
EKVX NSCLC = tested on: EKVX NSCLC
SNB-75 CNS = tested on: SNB-75 CNS
HCT-15 colon = tested on: HCT-15 colon

SMILES: O=C1Nc2c(C(F)(F)F)cccc2[C@@]1(c1ccc(O)cc1)c1ccc(OC(F)(F)F)cc1
- GI50 (OVCAR-4 ovarian): < 10 nM
- TGI (OVCAR-4 ovarian): < 10 nM
- GI50 ([…]-0 renal): 15300 nM
- TGI (786-0 renal): 28700 nM
- GI50 (RXF 393 renal): < 10 nM
- TGI (RXF 393 renal): < 10 nM
- GI50 (BT-549 breast): < 10 nM
- TGI (BT-549 breast): < 10 nM
- GI50 (UO-31 renal): 15.1 nM
- TGI (UO-31 renal): 28.8 nM
- GI50 (OVCAR-8 ovarian): < 10 nM
- TGI (OVCAR-8 ovarian): < 10 nM
- GI50 (HOP-92 NSCLC): 44.3 nM
- TGI (HOP-92 NSCLC): 20600 nM
- GI50 (MDA-MB-231 breast): 3860 nM
- TGI (MDA-MB-231 breast): 18900 nM
- GI50 (MDA-MB-468 breast): < 10 nM
- TGI (MDA-MB-468 breast): < 10 nM
- GI50 (HCT-116 colon): 25.2 nM
- TGI (HCT-116 colon): 16900 nM
- GI50 (MDA-MB-435 melanoma): 8620 nM
- TGI (MDA-MB-435 melanoma): 20900 nM
- GI50 (OVCAR-3 ovarian): < 10 nM
- TGI (OVCAR-3 ovarian): 17 nM
- GI50 (PC-3 prostate): 12.3 nM
- TGI (PC-3 prostate): 36.3 nM
- GI50 (SN12C renal): < 10 nM
- TGI (SN12C renal): 21.1 nM
- GI50 (KM12 colon): 14.5 nM
- TGI (KM12 colon): 1130 nM
- GI50 (SNB-19 CNS): 13200 nM
- TGI (SNB-19 CNS): 26000 nM
- GI50 (SF-539 CNS): 1600 nM
- TGI (SF-539 CNS): 13700 nM
- GI50 (MCF7 breast): 12.1 nM
- TGI (MCF7 breast): 62.2 nM
- GI50 (K-562 leukemia): 974 nM
- TGI (K-562 leukemia): 17700 nM
- GI50 (TK-10 renal): < 10 nM
- TGI (TK-10 renal): < 10 nM
- GI50 (UACC-257 melanoma): 12000 nM
- TGI (UACC-257 melanoma): 24400 nM
- GI50 (NCI/ADR-RES ovarian): < 10 nM
- TGI (NCI/ADR-RES ovarian): 22.8 nM
- GI50 (M14 melanoma): 3360 nM
- TGI (M14 melanoma): 17200 nM
- GI50 (NCI-H23 lung): < 10 nM
- TGI (NCI-H23 lung): 11.3 nM
- GI50 (SK-OV-3 ovarian): 58.4 nM
- TGI (SK-OV-3 ovarian): 13800 nM
- GI50 (SW-620 colon): 7090 nM
- TGI (SW-620 colon): 19400 nM
- GI50 (UACC-62 melanoma): 33.1 nM
- TGI (UACC-62 melanoma): 5960 nM
- GI50 (HL-60(TB) leukemia): 2140 nM
- TGI (HL-60(TB) leukemia): 3780 nM
- GI50 (SK-MEL-5 melanoma): 10900 nM
- TGI (SK-MEL-5 melanoma): 22900 nM
- GI50 (SF-295 CNS): 21.2 nM
- TGI (SF-295 CNS): 75.9 nM
- GI50 (HS 578T breast): < 10 nM
- TGI (HS 578T breast): < 10 nM
- GI50 (A549 NSCLC): 34.1 nM
- TGI (A549 NSCLC): 148 nM
- GI50 (NCI-H226 lung): 10.8 nM
- TGI (NCI-H226 lung): 27.6 nM
- GI50 (U251 glioblastoma): 14900 nM
- TGI (U251 glioblastoma): 28200 nM
- GI50 (COLO 205 colon): < 10 nM
- TGI (COLO 205 colon): < 10 nM
- GI50 (T-47D breast): < 10 nM
- TGI (T-47D breast): < 10 nM
- GI50 (ACHN renal): 20.3 nM
- TGI (ACHN renal): 47 nM
- GI50 (MALME-3M melanoma): 8370 nM
- TGI (MALME-3M melanoma): 20800 nM
- GI50 (NCI-H460 NSCLC): 13700 nM
- TGI (NCI-H460 NSCLC): 27100 nM
- GI50 (SF-268 CNS): 2010 nM
- TGI (SF-268 CNS): 18100 nM
- GI50 (CAKI-1 renal): 12900 nM
- TGI (CAKI-1 renal): 25500 nM
- GI50 (CCRF-CEM leukemia): 12800 nM
- TGI (CCRF-CEM leukemia): 25500 nM
- GI50 (DU-145 prostate): 31.3 nM
- TGI (DU-145 prostate): 102 nM
- GI50 (HCC-2998 colon): < 10 nM
- TGI (HCC-2998 colon): 41.5 nM
- GI50 (LOX IMVI melanoma): 11.8 nM
- TGI (LOX IMVI melanoma): 26.3 nM
- GI50 (SK-MEL-28 melanoma): 12400 nM
- TGI (SK-MEL-28 melanoma): 24900 nM
- GI50 (RPMI-8226 leukemia): 3030 nM
- TGI (RPMI-8226 leukemia): 9540 nM
- GI50 (MOLT-4 leukemia): 10400 nM
- TGI (MOLT-4 leukemia): 22200 nM
- GI50 (NCI-H322M lung): < 10 nM
- TGI (NCI-H322M lung): < 10 nM
- GI50 (A498 renal): 22 nM
- TGI (A498 renal): 61.9 nM
- GI50 (OVCAR-5 ovarian): 50.3 nM
- TGI (OVCAR-5 ovarian): 20400 nM
- GI50 (HT29 colon): 12900 nM
- TGI (HT29 colon): 25700 nM
- GI50 (SR leukemia): 2040 nM
- TGI (SR leukemia): 4150 nM
- GI50 (EKVX NSCLC): 17 nM
- TGI (EKVX NSCLC): 55.1 nM
- GI50 (SNB-75 CNS): < 10 nM
- TGI (SNB-75 CNS): < 10 nM
- GI50 (HCT-15 colon): 18.6 nM
- TGI (HCT-15 colon): 15200 nM
